Assay results reported in paper PMC10182977 (Nature Communications, 2023).

Experiments:
xlCHPT1 = molecular target: T1, xlCHPT1 (Xenopus laevis, UniProt Q4KLV1); experiment: cryo-EM structure, ~[…] Å; type: binding; details: Mg2+ complex; 10 mM CDP and 0.5 mM DAG added; CDP-choline active site
T1 construct: gene chpt1; full-length, codon-optimized; C-terminal His6-tag cleaved with TEV protease; Hi Five (Trichoplusia ni) baculovirus; detergent-purified homodimer; residues 20-383 modelled
T1 sequence (Q4KLV1 1-402): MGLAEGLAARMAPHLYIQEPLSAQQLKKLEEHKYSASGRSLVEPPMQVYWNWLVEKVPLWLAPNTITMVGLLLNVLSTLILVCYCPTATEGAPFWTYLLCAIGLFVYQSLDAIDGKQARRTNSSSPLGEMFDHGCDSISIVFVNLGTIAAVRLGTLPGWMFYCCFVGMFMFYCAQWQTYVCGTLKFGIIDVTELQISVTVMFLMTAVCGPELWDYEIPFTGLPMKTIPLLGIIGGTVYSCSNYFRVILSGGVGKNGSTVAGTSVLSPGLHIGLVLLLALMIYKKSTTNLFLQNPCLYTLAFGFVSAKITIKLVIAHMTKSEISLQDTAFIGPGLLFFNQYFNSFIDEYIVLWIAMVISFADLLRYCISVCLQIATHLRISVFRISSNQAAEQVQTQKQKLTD

[1] = molecular target: the molecule itself; experiment: cryo-EM structure; single-particle cryo-EM of purified xlCHPT1 in 20 mM HEPES, 150 mM NaCl, 2 mM BME, 4 mM MgCl2, 0.02% GDN; with 10 mM CDP-choline, or with 10 mM CDP and 0.5 mM DAG; refined with C2 symmetry

Nc1ccn([C@@H]2O[C@H](COP(=O)(O)OP(=O)(O)O)[C@@H](O)[C@H]2O)c(=O)n1 [CDP]
cryo-EM structure, ~3.2 Å (xlCHPT1): xlCHPT1 in complex with CDP have been deposited in the PDB under the accession code 8ERO

B1: Xenopus laevis cholinephosphotransferase-1 (enzyme, UniProt Q4KLV1 1-402, looked up)
chain: T1 sequence (Q4KLV1 1-402)
notes: cholinephosphotransferase-1 (CHPT1) of Xenopus laevis, full length, codon-optimized gene; residues 20-383 are resolved in the cryo-EM models, the first 19 and the last 18 residues are not resolved; The His6 tag was cleaved with TEV protease; residues of the cleavage site may be left at the C-terminus; also called xlCHPT1; CHPT1; source: Hi Five (Trichoplusia ni) cells, baculovirus, purified (LMNG …)
stoichiometry N [1]: 2
